Results on 52 sequences are retold here after the supplement of paper PMC11208160.
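Further: IS621 bridge recombinase in Escherichia coli cells against a fixed T5 target plasmid.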

The series is described as follows: recombinant UMI read abundance after kanamycin selection (control-corrected) (log10(CPM+1)); higher = more efficient recombination; extreme values may be limits of the assay; sequences stand for … in AGTGCAGAGAAAATCGGCCAGTTTTCTCTGCCTGCAGTCCGCATGCCGTGGGACCCCTTGGGTTCTAACCTGTTGCCTAGATTTATGCAGCGGACTGCCTTTCTCCCAAAGTGATAAACCGG…AGGTTGGTTTCACT; site = the 11-nt donor. A digest of the protocol: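 Each donor and donor-binding-loop pair was tracked by a 12-nt UMI on a plasmid carrying a promoterless kanamycin gene. With a second plasmid supplying a fixed target and T7-inducible IS621 bridge recombinase, the pool was plated in Escherichia coli on IPTG (0.07 mM) plus kanamycin or unselected. Sequencing of recombinant UMIs across the donor–target junction gave counts expressed as log10(CPM+1) after replicate averaging and control-derived scaling.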
Consider “TGCTAGCCATGGACCGGTTTTCCCGGTAATCCGTATTTGGT (site TGCTAGGCTAC)”, for which the “recombinant UMI read abundance (log10)” value is 0.0165.
On to “TGCTAGCCATGGACCGGTTTTCCCGGTAATCCGTATTTGGT (site TGCTAGTCTAC)”, for which the “recombinant UMI read abundance (log10)” value is 0.00984.
As for “TGCTAGGCATGGACCGGTTTTCCCGGTAATCCGTATTTGCT (site TGCTAGGCTAA)”, the “recombinant UMI read abundance (log10)” value was determined as 0.0205.
“TGCTAGGCATGGACCGGTTTTCCCGGTAATCCGTATTTGCT (site TGCTAGGCTAC)”: the “recombinant UMI read abundance (log10)” value stood at 0.0125.
With “TGCTAGGCATGGACCGGTTTTCCCGGTAATCCGTATTTGCT (site TGCTAGGCTAG)”, the “recombinant UMI read abundance (log10)” value turned out to be 0.521.
Regarding “TGCTAGGCATGGACCGGTTTTCCCGGTAATCCGTATTTGCT (site TGCTAGGCTAT)”, the “recombinant UMI read abundance (log10)” value was determined as 0.00772.
As to “TGCTAGGCATGGACCGGTTTTCCCGGTAATCCGTATTTGGA (site TGCTAGGCTAC)”, the “recombinant UMI read abundance (log10)” value was determined as 0.138.
Take “TGCTAGGCATGGACCGGTTTTCCCGGTAATCCGTATTTGGA (site TGCTAGGCTCC)”: the “recombinant UMI read abundance (log10)” value turned out to be 0.0137.
For the sequence “TGCTAGGCATGGACCGGTTTTCCCGGTAATCCGTATTTGGA (site TGCTAGGCTGC)”, the “recombinant UMI read abundance (log10)” value was found to be 0.
In the case of “TGCTAGGCATGGACCGGTTTTCCCGGTAATCCGTATTTGGA (site TGCTAGGCTTC)”, the “recombinant UMI read abundance (log10)” value came out at 0.261.
“TGCTAGGCATGGACCGGTTTTCCCGGTAATCCGTATTTGGC (site TGCTAGGCTAC)”: the “recombinant UMI read abundance (log10)” value was 0.0365.
On to “TGCTAGGCATGGACCGGTTTTCCCGGTAATCCGTATTTGGC (site TGCTAGGCTCC)”, for which the “recombinant UMI read abundance (log10)” value was determined as 0.013.
As for “TGCTAGGCATGGACCGGTTTTCCCGGTAATCCGTATTTGGC (site TGCTAGGCTGC)”, the “recombinant UMI read abundance (log10)” value amounted to 0.
Consider “TGCTAGGCATGGACCGGTTTTCCCGGTAATCCGTATTTGGC (site TGCTAGGCTTC)”, for which the “recombinant UMI read abundance (log10)” value worked out at 0.0105.
Take “TGCTAGGCATGGACCGGTTTTCCCGGTAATCCGTATTTGTT (site TGCTAGGCTAA)”: the “recombinant UMI read abundance (log10)” value was 0.282.
In the case of “TGCTAGGCATGGACCGGTTTTCCCGGTAATCCGTATTTGTT (site TGCTAGGCTAC)”, the “recombinant UMI read abundance (log10)” value came out at 0.00683.
Regarding “TGCTAGGCATGGACCGGTTTTCCCGGTAATCCGTATTTGTT (site TGCTAGGCTAG)”, the “recombinant UMI read abundance (log10)” value stood at 0.00242.
Then “TGCTAGGCATGGACCGGTTTTCCCGGTAATCCGTATTTGTT (site TGCTAGGCTAT)”, with 0.
As for “TGCTGCCCATGGACCGGTTTTCCCGGTAATCCGTATTTGTC (site TGCTGCCCTGA)”, the figure is 0.338; as for “TGGAACCCATGGACCGGTTTTCCCGGTAATCCGTATTTGTT (site CGGAATCCTAA)”, 0.
Take “TGGAACCCATGGACCGGTTTTCCCGGTAATCCGTATTTGTT (site TGGAACCCTAA)”: the “recombinant UMI read abundance (log10)” value turned out to be 1.15.
Then “TGGAAGACATGGACCGGTTTTCCCGGTAATCCGTATTTGTA (site AGGAAGACTTG)”, with 0.00598; and “TGGAAGACATGGACCGGTTTTCCCGGTAATCCGTATTTGTA (site TGGAAGACTTA)”, with 2.36; and “TGGAAGTCATGGACCGGTTTTCCCGGTAATCCGTATTTGGC (site TGGAAGTCTGC)”, with 2.31.
As for “TGGAATACATGGACCGGTTTTCCCGGTAATCCGTATTTGTG (site TGGAATACTCA)”, the figure is 1.12; as for “TGGAATCCATGGACCGGTTTTCCCGGTAATCCGTATTTGGT (site CGGAATCCTAA)”, 0.
In the case of “TGGAATCCATGGACCGGTTTTCCCGGTAATCCGTATTTGGT (site TGGAATCCTAC)”, the “recombinant UMI read abundance (log10)” value was found to be 0.
Take “TGGACTACATGGACCGGTTTTCCCGGTAATCCGTATTTGGA (site TGGACTACTTC)”: the “recombinant UMI read abundance (log10)” value came out at 0.786.
For the sequence “TGGACTTCATGGACCGGTTTTCCCGGTAATCCGTATTTGTG (site TGGACTTCTCA)”, the “recombinant UMI read abundance (log10)” value turned out to be 0.248.
As to “TGGATTCCATGGACCGGTTTTCCCGGTAATCCGTATTTGAT (site TGGATTCCTAT)”, the “recombinant UMI read abundance (log10)” value amounted to 0.
Consider “TGGCAGGCATGGACCGGTTTTCCCGGTAATCCGTATTTGGC (site TGGCAGGCTGC)”, for which the “recombinant UMI read abundance (log10)” value worked out at 0.909.
Then “TGGCAGGCATGGACCGGTTTTCCCGGTAATCCGTATTTGGC (site TGGCCGGCTGC)”, with 0; and “TGGCAGGCATGGACCGGTTTTCCCGGTAATCCGTATTTGGC (site TGGCGGGCTGC)”, with 0; and “TGGCAGGCATGGACCGGTTTTCCCGGTAATCCGTATTTGGC (site TGGCTGGCTGC)”, with 0.
Then “TGGCCGGCATGGACCGGTTTTCCCGGTAATCCGTATTTGCC (site TGGCCGGCTGA)”, with 0.00339.
Consider “TGGCCGGCATGGACCGGTTTTCCCGGTAATCCGTATTTGCC (site TGGCCGGCTGC)”, for which the “recombinant UMI read abundance (log10)” value was 0.
Turning to “TGGCCGGCATGGACCGGTTTTCCCGGTAATCCGTATTTGCC (site TGGCCGGCTGG)”, the “recombinant UMI read abundance (log10)” value was 1.05.
In the case of “TGGCCGGCATGGACCGGTTTTCCCGGTAATCCGTATTTGCC (site TGGCCGGCTGT)”, the “recombinant UMI read abundance (log10)” value worked out at 0.00896.
Consider “TGGCCGTCATGGACCGGTTTTCCCGGTAATCCGTATTTGGC (site TGGCCGACTGC)”, for which the “recombinant UMI read abundance (log10)” value came out at 0.
For the sequence “TGGCCGTCATGGACCGGTTTTCCCGGTAATCCGTATTTGGC (site TGGCCGCCTGC)”, the “recombinant UMI read abundance (log10)” value turned out to be 0.
Then “TGGCCGTCATGGACCGGTTTTCCCGGTAATCCGTATTTGGC (site TGGCCGGCTGC)”, with 0; and “TGGCCGTCATGGACCGGTTTTCCCGGTAATCCGTATTTGGC (site TGGCCGTCTGC)”, with 0.431; and “TGGCGAGCATGGACCGGTTTTCCCGGTAATCCGTATTTGTT (site TGGCGAGCTAA)”, with 1.04.
In the case of “TGGCGGACATGGACCGGTTTTCCCGGTAATCCGTATTTGCA (site TGGCGGACTTG)”, the “recombinant UMI read abundance (log10)” value amounted to 1.67.
Then “TGGCTTACATGGACCGGTTTTCCCGGTAATCCGTATTTGGC (site TGGCTTACTGC)”, with 0.536; and “TGGGAATCATGGACCGGTTTTCCCGGTAATCCGTATTTGCG (site TAGGAATCTCG)”, with 1.35.
On to “TGGGAATCATGGACCGGTTTTCCCGGTAATCCGTATTTGCG (site TCGGAATCTCG)”, for which the “recombinant UMI read abundance (log10)” value is 1.85.
Consider “TGGGAATCATGGACCGGTTTTCCCGGTAATCCGTATTTGCG (site TGGGAATCTCG)”, for which the “recombinant UMI read abundance (log10)” value was 2.5.
On to “TGGGAATCATGGACCGGTTTTCCCGGTAATCCGTATTTGCG (site TTGGAATCTCG)”, for which the “recombinant UMI read abundance (log10)” value was 0.459.
As to “TGGGAGACATGGACCGGTTTTCCCGGTAATCCGTATTTGCA (site AGGAAGACTTG)”, the “recombinant UMI read abundance (log10)” value was determined as 0.261.
In the case of “TGGGAGACATGGACCGGTTTTCCCGGTAATCCGTATTTGCA (site TGGGAGACTTG)”, the “recombinant UMI read abundance (log10)” value was determined as 1.7.
Regarding “TGGGAGGCATGGACCGGTTTTCCCGGTAATCCGTATTTGAC (site TGGGAGGCTGT)”, the “recombinant UMI read abundance (log10)” value was 1.46.
